# Data as given in patent US20080009418A1, “Selective Inhibitors” (Alchemia LTD., priority 2004, published 2008).
# Assays:
# [1] = target: T1, Human κ-Opioid (KOP) (Homo sapiens, UniProt P41145); assay: Radioligand binding, human κ-opioid (KOP) membranes, filtration, [3H]-Diprenorphine; conditions: compound at 10 μM, [3H]-Diprenorphine; for A2: inhibition of radioligand binding: filtration
# T1 construct: purchased Perkin Elmer Biosignal
# How it was run: (§1)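 Percent inhibition of radioligand binding measured on recombinant human membranes: NK1 with [125I]-Substance P, KOP with [3H]-Diprenorphine. Incubation 1 h at room temperature, then harvest onto 0.3% PEI-soaked filters, cold Tris-HCl pH 7.4 washes and scintillation counting; non-specific binding from reference ligand wells.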
# [2] = target: T2, Human δ-opioid (DOP) (Homo sapiens, UniProt P41143); assay: Radioligand binding, human δ-opioid (DOP) membranes, FlashPlate, [3H]-Bremazocine; conditions: compound at 10 μM, [3H]-Bremazocine; for A1: inhibition of radioligand binding: FlashPlate
# T2 construct: purchased Perkin Elmer Biosignal
# How it was run: (§2)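 Cloned human receptor membranes were coated onto FlashPlate wells and incubated with radioligand and compound (added from a 0.5 mM DMSO daughter plate) for 1 hour at room temperature in the dark. Scintillation counting gave percent inhibition, with DMSO defining total and reference ligand defining non-specific binding.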
# [3] = target: T3, Mouse urotensin (mUR2) (Mus musculus, UniProt Q8VIH9); assay: Radioligand binding, mouse urotensin mUR2 membranes, FlashPlate, [125I]-Urotensin II; conditions: compound at 10 μM, [125I]-Urotensin II; for A11: inhibition of radioligand binding: FlashPlate
# T3 construct: purchased Perkin Elmer Biosignal
# T3 sequence (Q8VIH9 1-385): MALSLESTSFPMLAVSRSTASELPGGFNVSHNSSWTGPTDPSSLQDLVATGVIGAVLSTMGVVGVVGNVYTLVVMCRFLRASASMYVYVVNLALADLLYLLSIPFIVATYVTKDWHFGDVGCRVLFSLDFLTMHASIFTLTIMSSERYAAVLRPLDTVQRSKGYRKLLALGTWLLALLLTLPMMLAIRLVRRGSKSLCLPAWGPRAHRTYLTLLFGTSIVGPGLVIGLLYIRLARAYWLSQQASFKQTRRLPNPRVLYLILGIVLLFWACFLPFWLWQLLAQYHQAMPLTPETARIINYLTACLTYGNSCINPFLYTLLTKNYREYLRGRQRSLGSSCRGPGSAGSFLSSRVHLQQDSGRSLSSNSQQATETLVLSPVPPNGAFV
# How it was run: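 Cloned mouse urotensin (mUR2) receptor membranes from Perkin Elmer Biosignal were immobilized in FlashPlate microplates using a proprietary coating. Each well got 19.5 μl buffer, then 0.5 μl of DMSO, reference ligand, or compound. Adding 5 μl of [125I]-Urotensin II, diluted to 5× final concentration in binding buffer, started binding. Plates were sealed with TopSeal-A and incubated 1 hour at room temperature in the dark. Wells were counted for 30 seconds each on a TopCount after a 60-second delay, and percentage inhibition was calculated.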
# [4] = target: T4, Human opioid (ORL1) (Homo sapiens, UniProt P41146); assay: Radioligand binding, human opioid ORL1 membranes, FlashPlate, [125I]-Nociceptin; conditions: compound at 10 μM, [125I]-Nociceptin; for A10: inhibition of radioligand binding: FlashPlate
# T4 construct: purchased Perkin Elmer Biosignal
# How it was run: as §2
# [5] = target: T5, Human neuropeptide Y (NPY-Y1) (Homo sapiens, UniProt P25929); assay: Radioligand binding, human neuropeptide Y NPY-Y1 membranes, FlashPlate, [125I]-PYY; conditions: compound at 10 μM, [125I]-PYY; for A9: inhibition of radioligand binding: FlashPlate
# T5 construct: purchased Perkin Elmer Biosignal
# T5 sequence (P25929 1-384): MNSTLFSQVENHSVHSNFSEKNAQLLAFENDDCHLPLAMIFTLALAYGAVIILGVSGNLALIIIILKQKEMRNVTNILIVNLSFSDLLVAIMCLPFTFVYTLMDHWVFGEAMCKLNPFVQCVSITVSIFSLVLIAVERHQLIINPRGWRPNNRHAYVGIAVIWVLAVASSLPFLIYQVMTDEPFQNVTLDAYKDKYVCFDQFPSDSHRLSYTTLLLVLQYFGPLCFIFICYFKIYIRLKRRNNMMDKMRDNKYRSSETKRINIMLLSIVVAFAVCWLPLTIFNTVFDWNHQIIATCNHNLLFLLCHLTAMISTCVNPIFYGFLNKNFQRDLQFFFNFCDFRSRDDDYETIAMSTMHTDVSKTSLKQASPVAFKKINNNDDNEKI
# How it was run: as §2
# [6] = target: T6, Human Melanocortin (MC3) (Homo sapiens, UniProt P41968); assay: Radioligand binding, human melanocortin MC3 membranes, FlashPlate, [125I]-NDP-αMSH; conditions: compound at 10 μM, [125I]-NDP-αMSH; for A3: inhibition of radioligand binding: FlashPlate
# T6 construct: purchased Perkin Elmer Biosignal
# How it was run: as §2
# [7] = target: T7, Human melanocortin (MC5) (Homo sapiens, UniProt P33032); assay: Radioligand binding, human melanocortin MC5 membranes, FlashPlate, [125I]-NDP-αMSH; conditions: compound at 10 μM, [125I]-NDP-αMSH; for A5: inhibition of radioligand binding: FlashPlate
# T7 construct: purchased Perkin Elmer Biosignal
# How it was run: as §2
# [8] = target: T8, Human melanin-concentrating hormone (MCH1) (Homo sapiens, UniProt Q99705); assay: Radioligand binding, human melanin-concentrating hormone MCH1 membranes, FlashPlate, [125I]-S36057; conditions: compound at 10 μM; for A6: inhibition of radioligand binding: [125I]-S36057, FlashPlate
# T8 construct: purchased Perkin Elmer Biosignal
# How it was run: as §2
# [9] = target: T9, Human neurokinin (NK1) (Homo sapiens, UniProt P25103); assay: Radioligand binding, human neurokinin NK1 membranes, filtration, [125I]-Substance P; conditions: compound at 10 μM, [125I]-Substance P; for A8: inhibition of radioligand binding: filtration
# T9 construct: purchased Perkin Elmer Biosignal
# How it was run: as §1
# [10] = target: T10, Human μ-opioid (MOP) (Homo sapiens, UniProt P35372); assay: Radioligand binding, human μ-opioid (MOP) membranes, FlashPlate, [3H]-Naloxone; conditions: compound at 10 μM, [3H]-Naloxone; for A7: inhibition of radioligand binding: FlashPlate
# T10 construct: purchased Perkin Elmer Biosignal
# How it was run: as §2
# [11] = target: T11, Human Melanocortin (MC4) (Homo sapiens, UniProt P32245); assay: Radioligand binding, human melanocortin MC4 membranes, FlashPlate, [125I]-NDP-αMSH; conditions: compound at 10 μM, [125I]-NDP-αMSH; for A4: inhibition of radioligand binding: FlashPlate
# T11 construct: purchased Perkin Elmer Biosignal
# How it was run: as §2
# T1 sequence (P41145 whole entry): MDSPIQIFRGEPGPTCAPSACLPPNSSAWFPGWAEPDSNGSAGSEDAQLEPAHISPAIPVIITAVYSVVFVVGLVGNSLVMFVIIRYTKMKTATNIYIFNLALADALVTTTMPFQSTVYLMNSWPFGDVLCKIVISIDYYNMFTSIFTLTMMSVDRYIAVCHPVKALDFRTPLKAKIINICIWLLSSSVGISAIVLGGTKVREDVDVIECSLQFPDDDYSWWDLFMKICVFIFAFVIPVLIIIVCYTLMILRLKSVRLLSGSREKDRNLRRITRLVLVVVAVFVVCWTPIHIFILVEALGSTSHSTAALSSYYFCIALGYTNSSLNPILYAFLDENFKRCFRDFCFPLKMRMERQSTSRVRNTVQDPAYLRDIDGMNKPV
# T9 sequence (P25103 whole entry): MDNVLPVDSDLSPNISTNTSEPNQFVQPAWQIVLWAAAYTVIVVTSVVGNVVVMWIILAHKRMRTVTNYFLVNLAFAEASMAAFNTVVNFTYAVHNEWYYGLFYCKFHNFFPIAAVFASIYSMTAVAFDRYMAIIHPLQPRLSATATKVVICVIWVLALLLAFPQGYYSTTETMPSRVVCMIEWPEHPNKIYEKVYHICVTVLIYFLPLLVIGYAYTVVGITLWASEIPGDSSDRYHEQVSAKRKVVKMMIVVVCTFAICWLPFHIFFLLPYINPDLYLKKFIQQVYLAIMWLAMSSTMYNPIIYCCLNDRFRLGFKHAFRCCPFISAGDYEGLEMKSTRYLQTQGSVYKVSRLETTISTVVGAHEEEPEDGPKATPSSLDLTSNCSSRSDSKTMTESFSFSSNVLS
# T6 sequence (P41968 whole entry): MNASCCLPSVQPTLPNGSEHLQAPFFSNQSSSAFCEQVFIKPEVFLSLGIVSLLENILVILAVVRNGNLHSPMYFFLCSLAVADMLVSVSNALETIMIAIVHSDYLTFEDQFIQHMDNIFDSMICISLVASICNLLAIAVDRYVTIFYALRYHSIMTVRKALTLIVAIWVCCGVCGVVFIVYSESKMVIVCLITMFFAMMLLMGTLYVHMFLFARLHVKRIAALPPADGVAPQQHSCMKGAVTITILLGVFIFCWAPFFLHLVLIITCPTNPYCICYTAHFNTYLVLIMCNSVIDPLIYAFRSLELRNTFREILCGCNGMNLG
# T4 sequence (P41146 whole entry): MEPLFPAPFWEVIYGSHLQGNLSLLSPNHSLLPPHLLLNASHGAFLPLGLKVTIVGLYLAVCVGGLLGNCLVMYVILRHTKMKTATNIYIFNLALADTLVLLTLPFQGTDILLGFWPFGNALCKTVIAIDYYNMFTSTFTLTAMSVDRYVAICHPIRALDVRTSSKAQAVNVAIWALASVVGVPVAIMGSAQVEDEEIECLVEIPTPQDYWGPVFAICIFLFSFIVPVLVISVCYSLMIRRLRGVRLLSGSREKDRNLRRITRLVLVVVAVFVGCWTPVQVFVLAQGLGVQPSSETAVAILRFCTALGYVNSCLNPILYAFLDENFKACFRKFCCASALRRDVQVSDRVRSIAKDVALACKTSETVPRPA
# T8 sequence (Q99705 whole entry): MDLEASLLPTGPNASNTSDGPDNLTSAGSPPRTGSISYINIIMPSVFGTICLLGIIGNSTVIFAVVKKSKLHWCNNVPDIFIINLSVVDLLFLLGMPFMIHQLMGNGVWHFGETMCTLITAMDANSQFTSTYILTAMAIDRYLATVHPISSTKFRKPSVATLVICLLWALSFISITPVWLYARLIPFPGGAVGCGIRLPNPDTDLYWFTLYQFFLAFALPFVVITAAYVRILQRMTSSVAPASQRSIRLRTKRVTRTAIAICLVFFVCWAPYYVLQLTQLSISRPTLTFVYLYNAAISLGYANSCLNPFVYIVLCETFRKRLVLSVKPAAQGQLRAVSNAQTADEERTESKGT
# T2 sequence (P41143 whole entry): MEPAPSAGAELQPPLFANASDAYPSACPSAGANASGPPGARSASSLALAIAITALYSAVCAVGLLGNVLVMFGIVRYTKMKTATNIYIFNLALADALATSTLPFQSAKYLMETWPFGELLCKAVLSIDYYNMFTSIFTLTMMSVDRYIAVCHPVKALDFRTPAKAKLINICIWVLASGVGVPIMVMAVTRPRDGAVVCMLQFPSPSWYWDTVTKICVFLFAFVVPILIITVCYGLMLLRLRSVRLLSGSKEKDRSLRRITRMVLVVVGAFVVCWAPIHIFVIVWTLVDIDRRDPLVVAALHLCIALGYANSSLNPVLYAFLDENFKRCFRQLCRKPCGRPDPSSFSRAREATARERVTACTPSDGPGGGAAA
# T11 sequence (P32245 whole entry): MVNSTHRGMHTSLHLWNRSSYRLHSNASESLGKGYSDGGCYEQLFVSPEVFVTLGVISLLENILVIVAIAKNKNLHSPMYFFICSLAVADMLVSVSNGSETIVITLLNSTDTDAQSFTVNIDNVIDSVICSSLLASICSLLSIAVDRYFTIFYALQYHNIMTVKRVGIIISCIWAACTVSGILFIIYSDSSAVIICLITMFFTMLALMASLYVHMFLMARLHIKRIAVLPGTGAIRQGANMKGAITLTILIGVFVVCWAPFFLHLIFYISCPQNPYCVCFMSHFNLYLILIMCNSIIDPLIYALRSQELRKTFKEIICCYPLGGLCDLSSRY
# T7 sequence (P33032 whole entry): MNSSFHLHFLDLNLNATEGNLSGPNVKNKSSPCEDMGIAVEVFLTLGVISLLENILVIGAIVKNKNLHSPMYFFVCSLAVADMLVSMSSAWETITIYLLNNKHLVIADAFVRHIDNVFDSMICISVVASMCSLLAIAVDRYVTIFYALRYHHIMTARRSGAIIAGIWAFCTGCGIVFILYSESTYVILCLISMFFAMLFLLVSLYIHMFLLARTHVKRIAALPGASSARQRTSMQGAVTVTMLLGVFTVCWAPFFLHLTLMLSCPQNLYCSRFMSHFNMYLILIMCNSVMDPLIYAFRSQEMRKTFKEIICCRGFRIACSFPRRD
# T10 sequence (P35372 whole entry): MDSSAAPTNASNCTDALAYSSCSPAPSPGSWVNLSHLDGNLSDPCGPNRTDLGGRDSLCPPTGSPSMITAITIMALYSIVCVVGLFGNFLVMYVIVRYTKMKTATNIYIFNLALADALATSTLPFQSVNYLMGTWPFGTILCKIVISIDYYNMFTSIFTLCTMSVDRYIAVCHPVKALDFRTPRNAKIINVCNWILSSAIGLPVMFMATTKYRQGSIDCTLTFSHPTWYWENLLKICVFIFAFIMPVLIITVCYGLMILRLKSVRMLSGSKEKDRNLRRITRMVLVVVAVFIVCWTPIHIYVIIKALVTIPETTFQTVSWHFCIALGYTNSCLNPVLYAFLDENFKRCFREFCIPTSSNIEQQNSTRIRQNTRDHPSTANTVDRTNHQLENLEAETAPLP
Structure (SMILES),"A2: inhibition of radioligand binding, human κ-opioid (KOP) [1]","A1: inhibition of radioligand binding, human δ-opioid (DOP) [2]","A11: inhibition of radioligand binding, mouse urotensin (mUR2) [3]","A10: inhibition of radioligand binding, human opioid (ORL1) [4]","A9: inhibition of radioligand binding, human neuropeptide Y (NPY-Y1) [5]","A5: inhibition of radioligand binding, human melanocortin (MC5) [7]","A8: inhibition of radioligand binding, human neurokinin (NK1) [9]","A4: inhibition of radioligand binding, human melanocortin (MC4) [11]",A2: inhibition of radioligand binding [1],A1: inhibition of radioligand binding [2],A11: inhibition of radioligand binding [3],A10: inhibition of radioligand binding [4],A9: inhibition of radioligand binding [5],A3: inhibition of radioligand binding [6],A5: inhibition of radioligand binding [7],A6: inhibition of radioligand binding [8],A8: inhibition of radioligand binding [9],A7: inhibition of radioligand binding [10],A4: inhibition of radioligand binding [11],further results
COCC1OC(OCc2ccccc2)C(NC(=O)CCN)C(OCc2ccccc2)C1O (stereo not shown) [compound 172],,,,,,,,,,,,,,,,,,,,"A2 radioligand binding, percentage inhibition [1]: − (“−” indicates less than 50% inhibition at 10 μM); A1 radioligand binding, percentage inhibition [2]: − (“−” indicates less than 50% inhibition at 10 μM); A11 radioligand binding, percentage inhibition [3]: − (“−” indicates less than 50% inhibition at 10 μM); A10 radioligand binding, percentage inhibition [4]: − (“−” indicates less than 50% inhibition at 10 μM); A9 radioligand binding, percentage inhibition [5]: − (“−” indicates less than 50% inhibition at 10 μM); A3 radioligand binding, percentage inhibition [6]: − (“−” indicates less than 50% inhibition at 10 μM); A5 radioligand binding, percentage inhibition [7]: − (“−” indicates less than 50% inhibition at 10 μM); A6 radioligand binding, percentage inhibition ([8]; [125I]-S36057): − (“−” indicates less than 50% inhibition at 10 μM); A8 radioligand binding, percentage inhibition [9]: + (“+” indicates greater than 50% inhibition at 10 μM); A7 radioligand binding, percentage inhibition [10]: − (“−” indicates less than 50% inhibition at 10 μM); A4 radioligand binding, percentage inhibition [11]: − (“−” indicates less than 50% inhibition at 10 μM)"
N=C(N)NCCC(=O)N[C@H]1C(OCc2ccc(Cl)cc2)O[C@H](COCc2ccccc2)[C@@H](O)[C@@H]1OCc1ccc2ccccc2c1 (stereo partly shown) [compound 531],+ (“+” indicates greater than 50% inhibition at 10 μM),− (“−” indicates less than 50% inhibition at 10 μM),− (“−” indicates less than 50% inhibition at 10 μM),+ (“+” indicates greater than 50% inhibition at 10 μM),− (“−” indicates less than 50% inhibition at 10 μM),+ (“+” indicates greater than 50% inhibition at 10 μM),+ (“+” indicates greater than 50% inhibition at 10 μM),+ (“+” indicates greater than 50% inhibition at 10 μM),,,,,,,,,,,,"A3: inhibition of radioligand binding, human melanocortin (MC3) [6]: + (“+” indicates greater than 50% inhibition at 10 μM); A6: inhibition of radioligand binding, human melanin-concentrating hormone (MCH1) ([8]; [125I]-S36057): + (“+” indicates greater than 50% inhibition at 10 μM); A7: inhibition of radioligand binding, human μ-opioid (MOP) [10]: + (“+” indicates greater than 50% inhibition at 10 μM)"
COCC1OC(OCCc2ccccc2)C(NC(=O)CCCN)C(OCc2ccc(Cl)cc2)C1O (stereo not shown) [compound 222],,,,,,,,,− (“−” indicates less than 50% inhibition at 10 μM),− (“−” indicates less than 50% inhibition at 10 μM),− (“−” indicates less than 50% inhibition at 10 μM),− (“−” indicates less than 50% inhibition at 10 μM),− (“−” indicates less than 50% inhibition at 10 μM),− (“−” indicates less than 50% inhibition at 10 μM),+ (“+” indicates greater than 50% inhibition at 10 μM),− (“−” indicates less than 50% inhibition at 10 μM),+ (“+” indicates greater than 50% inhibition at 10 μM),− (“−” indicates less than 50% inhibition at 10 μM),− (“−” indicates less than 50% inhibition at 10 μM),
"NCCCC(=O)NC1C(OCc2ccc(Cl)cc2)OC(COCc2ccc3ccccc3c2)C(O)C1OCc1ccccc1 (single isomer, unassigned) [compound 501]",− (“−” indicates less than 50% inhibition at 10 μM),− (“−” indicates less than 50% inhibition at 10 μM),− (“−” indicates less than 50% inhibition at 10 μM),+ (“+” indicates greater than 50% inhibition at 10 μM),− (“−” indicates less than 50% inhibition at 10 μM),+ (“+” indicates greater than 50% inhibition at 10 μM),+ (“+” indicates greater than 50% inhibition at 10 μM),+ (“+” indicates greater than 50% inhibition at 10 μM),,,,,,,,,,,,"A3: inhibition of radioligand binding, human melanocortin (MC3) ([6]; 10 µM): + (“+” indicates greater than 50% inhibition at 10 μM); A6: inhibition of radioligand binding, human melanin-concentrating hormone (MCH1) ([8]; [125I]-S36057, 10 µM): − (“−” indicates less than 50% inhibition at 10 μM); A7: inhibition of radioligand binding, human μ-opioid (MOP) ([10]; 10 µM): − (“−” indicates less than 50% inhibition at 10 μM)"
COCC1OC(OCCc2ccccc2)C(NC(=O)CCN)C(OCc2ccc3ccccc3c2)C1O (stereo not shown) [compound 227],,,,,,,,,− (“−” indicates less than 50% inhibition at 10 μM),− (“−” indicates less than 50% inhibition at 10 μM),− (“−” indicates less than 50% inhibition at 10 μM),− (“−” indicates less than 50% inhibition at 10 μM),− (“−” indicates less than 50% inhibition at 10 μM),− (“−” indicates less than 50% inhibition at 10 μM),− (“−” indicates less than 50% inhibition at 10 μM),− (“−” indicates less than 50% inhibition at 10 μM),+ (“+” indicates greater than 50% inhibition at 10 μM),− (“−” indicates less than 50% inhibition at 10 μM),− (“−” indicates less than 50% inhibition at 10 μM),
